Our source for the IC50 values is patent US20110071150A1 (priority 2009, published 2011).

A word on the IC50: it is the concentration that inhibits the measured activity by half. A low value points to greater potency in that assay.

In the assay the test system is Jurkat IL-2 Production. Put plainly: Jurkat IL-2 Production Assay. The following applies: Homo sapiens, Jurkat cell (ATCC), 18-20 h incubation, PHA 5 μg/mL with 1% FBS, or PMA/Ionomycin with 30% FBS (table does not say which). The assay is classed as cell-based. In a few lines: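 Jurkat cells were exposed to compound (0.25% DMSO final) for 10 min, then stimulated for 18–20 h at 37 °C. The 1% FBS condition used 5 μg/mL PHA; the high-serum condition (30% FBS) used 50 ng/mL PMA plus 500 ng/mL ionomycin. IC50 was derived from IL-2 production.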
`Cn1nc(-c2cccnc2)cc1-c1ccc2[nH]c(-c3cccc(Cl)c3Cl)cc2c1` [Example 85, 2-(2,3-Dichloro-phenyl)-5-(2-methyl-5-pyridin-3-yl-2H-pyrazol-3-yl)-1H-indole] registered an IC50 of 149 nM.
`Cn1nc(-c2cccnc2)cc1-c1ccc2[nH]c(-c3ccc(F)cc3Cl)cc2c1` [Example 86, 2-(2-Chloro-4-fluoro-phenyl)-5-(2-methyl-5-pyridin-3-yl-2H-pyrazol-3-yl)-1H-indole] had an IC50 of 118 nM.
The result for `Cn1nc(-c2cccnc2)cc1-c1ccc2[nH]c(-c3cc(Cl)ccc3Cl)cc2c1` [Example 87, 2-(2,5-Dichloro-phenyl)-5-(2-methyl-5-pyridin-3-yl-2H-pyrazol-3-yl)-1H-indole] reads 135 nM.
Under `COC(=O)c1ccc(-c2ccc3[nH]c(-c4c(F)cccc4F)cc3c2)c(Cl)c1` [Example 88, 4-[2-(2,6-Difluoro-phenyl)-1H-indol-5-yl]-3-chloro-benzoic acid methyl ester] stands 908 nM; under `Cc1cc(C(N)=O)ccc1-c1ccc2[nH]c(-c3c(F)cccc3F)cc2c1` [Example 89, 4-[2-(2,6-Difluoro-phenyl)-1H-indol-5-yl]-3-methyl-benzamide], 451 nM; under `COc1ccc(-c2ccc3[nH]c(-c4c(F)cccc4F)cc3c2)c(OC)c1` [Example 90, 2-(2,6-Difluoro-phenyl)-5-(2,4-dimethoxy-phenyl)-1H-indole], 177 nM.
The molecule `Cc1cc(F)ccc1-c1ccc2[nH]c(-c3c(F)cccc3F)cc2c1` [Example 91, 2-(2,6-Difluoro-phenyl)-5-(4-fluoro-2-methyl-phenyl)-1H-indole] gave an IC50 of 456 nM.
The result for `Fc1cccc(F)c1-c1cc2cc(-c3ccc(C(F)(F)F)cc3C(F)(F)F)ccc2[nH]1` [Example 92, 5-(2,4-Bis-trifluoromethyl-phenyl)-2-(2,6-difluoro-phenyl)-1H-indole] reads 188 nM; that for `COc1ncc(-c2ccc3[nH]c(-c4c(F)cccc4F)cc3c2)c(OC)n1` [Example 93, 2-(2,6-Difluoro-phenyl)-5-(2,4-dimethoxy-pyrimidin-5-yl)-1H-indole], 921 nM.
The result for `Fc1cccc(F)c1-c1cc2cc(-c3ccc(C(F)(F)F)cc3Cl)ccc2[nH]1` [Example 94, 5-(2-Chloro-4-trifluoromethyl-phenyl)-2-(2,6-difluoro-phenyl)-1H-indole] reads 175 nM; that for `COc1ccc(-c2ccc3[nH]c(-c4c(F)cccc4F)cc3c2)c(OC)n1` [Example 95, 2-(2,6-Difluoro-phenyl)-5-(2,6-dimethoxy-pyridin-3-yl)-1H-indole], 994 nM.
Under `CS(=O)(=O)c1ccc(-c2ccc3[nH]c(-c4c(F)cccc4F)cc3c2)c(C(F)(F)F)c1` [Example 96, 2-(2,6-Difluoro-phenyl)-5-(4-methanesulfonyl-2-trifluoromethyl-phenyl)-1H-indole] stands 177 nM.
`CN(C)S(=O)(=O)c1ccc(-c2ccc3[nH]c(-c4c(F)cccc4F)cc3c2)c(C(F)(F)F)c1` [Example 97, 4-[2-(2,6-Difluoro-phenyl)-1H-indol-5-yl]-N,N-dimethyl-3-trifluoromethyl-benzenesulfonamide] gave an IC50 of 72 nM.
The result for `COc1ccc(-c2ccc3[nH]c(-c4c(F)cccc4F)cc3c2)c(Cl)c1` [Example 98, 5-(2-Chloro-4-methoxy-phenyl)-2-(2,6-difluoro-phenyl)-1H-indole] reads 279 nM; that for `COc1ccc(-c2ccc3[nH]c(-c4c(F)cccc4F)cc3c2)c(C(F)(F)F)c1` [Example 99, 2-(2,6-Difluoro-phenyl)-5-(4-methoxy-2-trifluoromethyl-phenyl)-1H-indole], 344 nM.
Under `Cc1cc(OC(F)(F)F)ccc1-c1ccc2[nH]c(-c3c(F)cccc3F)cc2c1` [Example 100, 2-(2,6-Difluoro-phenyl)-5-(2-methyl-4-trifluoromethoxy-phenyl)-1H-indole] stands 307 nM; under `COc1ccc(-c2ccc3[nH]c(-c4c(F)cccc4F)cc3c2)c(C)n1` [Example 101, 2-(2,6-Difluoro-phenyl)-5-(6-methoxy-2-methyl-pyridin-3-yl)-1H-indole], 593 nM.
`Cc1cc(-c2ncco2)ccc1-c1ccc2[nH]c(-c3c(F)cccc3F)cc2c1` [Example 102, 2-(2,6-Difluoro-phenyl)-5-(2-methyl-4-oxazol-2-yl-phenyl)-1H-indole] showed an IC50 of 74 nM. This IC50 is about 8-fold lower than that of the molecule before.
Take `COc1cc(-c2ncco2)ccc1-c1ccc2[nH]c(-c3c(F)cccc3F)cc2c1` [Example 103, 2-(2,6-Difluoro-phenyl)-5-(2-methoxy-4-oxazol-2-yl-phenyl)-1H-indole]: the IC50 was 176 nM.
Molecule `Cc1cc(N2CCNCC2)ncc1-c1ccc2[nH]c(-c3c(F)cccc3F)cc2c1` [Example 104, 2-(2,6-Difluoro-phenyl)-5-(4-methyl-6-piperazin-1-yl-pyridin-3-yl)-1H-indole] had an IC50 of 178 nM.
`Cc1sc(-c2ccnnc2)nc1-c1ccc2[nH]c(-c3c(F)cccc3F)cc2c1` [Example 105, 2-(2,6-Difluoro-phenyl)-5-(5-methyl-2-pyridazin-4-yl-thiazol-4-yl)-1H-indole] came in with an IC50 of 664 nM.
The result for `Cc1sc(I)nc1-c1ccc2[nH]c(-c3c(F)cccc3F)cc2c1` [Example 106, 2-(2,6-Difluoro-phenyl)-5-(2-iodo-5-methyl-thiazol-4-yl)-1H-indole] reads 488 nM; that for `Cn1nc(-c2cc[nH]n2)cc1-c1ccc2[nH]c(-c3c(F)cccc3F)cc2c1` [Example 108, 2-(2,6-Difluoro-phenyl)-5-(1-methyl-1H,1′H-[3,3]bipyrazolyl-5-yl)-1H-indole], 601 nM.
On to `Cn1nc(-c2ncco2)cc1-c1ccc2[nH]c(-c3c(F)cccc3F)cc2c1` [Example 110, 2-(2,6-Difluoro-phenyl)-5-(2-methyl-5-oxazol-2-yl-2H-pyrazol-3-yl)-1H-indole], for which 190 nM corresponded to half-maximal inhibition (IC50).
Under `Cn1nc(Br)cc1-c1ccc2[nH]c(-c3c(F)cccc3F)cc2c1` [Example 111, 5-(5-Bromo-2-methyl-2H-pyrazol-3-yl)-2-(2,6-difluoro-phenyl)-1H-indole] stands 318 nM; under `COc1cc(C)c(-c2ccc3[nH]c(-c4ccccc4F)cc3c2)cn1` [Example 112, 2-(2-Fluoro-phenyl)-5-(6-methoxy-4-methyl-pyridin-3-yl)-1H-indole], 843 nM.
Under `COc1cc(C)c(-c2ccc3[nH]c(-c4c(F)cccc4F)cc3c2)cn1` [Example 113, 2-(2,6-Difluoro-phenyl)-5-(6-methoxy-4-methyl-pyridin-3-yl)-1H-indole] stands 60 nM; under `Cn1nc(-c2cccnc2)nc1-c1ccc2[nH]c(-c3c(F)cccc3F)cc2c1` [Example 114, 2-(2,6-Difluoro-phenyl)-5-(2-methyl-5-pyridin-3-yl-2H-[1,2,4]triazol-3-yl)-1H-indole], 39 nM.
The result for `Cc1cc(-c2nnco2)ccc1-c1ccc2[nH]c(-c3c(F)cccc3Cl)cc2c1` [Example 115, 2-(2-Chloro-6-fluoro-phenyl)-5-(2-methyl-4-[1,3,4]oxadiazol-2-yl-phenyl)-1H-indole] reads 38 nM; that for `Cn1nc(-c2cccnc2)nc1-c1ccc2[nH]c(-c3c(F)cccc3Cl)cc2c1` [Example 116, 2-(2-Chloro-6-fluoro-phenyl)-5-(2-methyl-5-pyridin-3-yl-2H-[1,2,4]-triazol-3-yl)-1H-indole], 12 nM; that for `COC(=O)c1cc(C)c(-c2ccc3[nH]c(-c4c(F)cccc4Cl)cc3c2)cn1` [Example 117, 5-[2-(2-Chloro-6-fluoro-phenyl)-1H-indol-5-yl]-4-methyl-pyridine-2-carboxylic acid methyl ester], 19 nM.
`CNC(=O)c1cc(C)c(-c2ccc3[nH]c(-c4c(F)cccc4Cl)cc3c2)cn1` [Example 118, 5-[2-(2-Chloro-6-fluoro-phenyl)-1H-indol-5-yl]-4-methyl-pyridine-2-carboxylic acid methylamide] came in with a concentration for half-maximal inhibition (IC50) of 180 nM.
`Cc1cc(-c2nnco2)ncc1-c1ccc2[nH]c(-c3c(F)cccc3Cl)cc2c1` [Example 119, 2-(2-Chloro-6-fluoro-phenyl)-5-(4-methyl-6-[1,3,4]oxadiazol-2-yl-pyridin-3-yl)-1H-indole] registered an IC50 of 14 nM. This IC50 is about 13-fold lower than that of the molecule before.
For `Cc1nnc(-c2cc(C)c(-c3ccc4[nH]c(-c5c(F)cccc5Cl)cc4c3)cn2)o1` [Example 120, 2-(2-Chloro-6-fluoro-phenyl)-5-[4-methyl-6-(5-methyl-[1,3,4]oxadiazol-2-yl)-pyridin-3-yl]-1H-indole], the midpoint of inhibition, the IC50, lay at 19 nM.
Under `COc1cc(C)c(-c2ccc3[nH]c(-c4c(F)cccc4Cl)cc3c2)cn1` [Example 121, 2-(2-Chloro-6-fluoro-phenyl)-5-(6-methoxy-4-methyl-pyridin-3-yl)-1H-indole] stands 12 nM.
The result for `COc1cnc(-c2ccc3[nH]c(-c4c(F)cccc4Cl)cc3c2)c(C)c1` [Example 122, 2-(2-Chloro-6-fluoro-phenyl)-5-(5-methoxy-3-methyl-pyridin-2-yl)-1H-indole] reads 260 nM.
`COc1ccc(-c2ccc3[nH]c(-c4c(F)cccc4Cl)cc3c2)c(C)n1` [Example 123, 2-(2-Chloro-6-fluoro-phenyl)-5-(6-methoxy-2-methyl-pyridin-3-yl)-1H-indole] came in with an IC50 of 448 nM.
Under `CCn1nc(-c2cccnc2)nc1-c1ccc2[nH]c(-c3c(F)cccc3Cl)cc2c1` [Example 124, 2-(2-Chloro-6-fluoro-phenyl)-5-(2-ethyl-5-pyridin-3-yl-2H-[1,2,4]triazol-3-yl)-1H-indole] stands 11 nM; under `Cc1sc(-c2ncco2)nc1-c1ccc2[nH]c(-c3c(F)cccc3Cl)cc2c1` [Example 125, 2-(2-Chloro-6-fluoro-phenyl)-5-(5-methyl-2-oxazol-2-yl-thiazol-4-yl)-1H-indole], 49 nM.
With `COC(=O)c1ccc(-c2ccc3[nH]c(-c4ccccc4Cl)cc3c2)c(C)c1` [Example 126], the IC50 stood at 106 nM.
